{"source": "patent US20040067565A1", "about": "“Selective functionalization of hydrocarbons with isolated oxygenases and mediator based regeneration” (priority 2002, published 2004)", "key": {"[1]": {"molecular_target": "T1, monooxygenase component of styrene monooxygenase (StyA) (Pseudomonas sp, UniProt O50214)", "T1 sequence (O50214 whole entry)": "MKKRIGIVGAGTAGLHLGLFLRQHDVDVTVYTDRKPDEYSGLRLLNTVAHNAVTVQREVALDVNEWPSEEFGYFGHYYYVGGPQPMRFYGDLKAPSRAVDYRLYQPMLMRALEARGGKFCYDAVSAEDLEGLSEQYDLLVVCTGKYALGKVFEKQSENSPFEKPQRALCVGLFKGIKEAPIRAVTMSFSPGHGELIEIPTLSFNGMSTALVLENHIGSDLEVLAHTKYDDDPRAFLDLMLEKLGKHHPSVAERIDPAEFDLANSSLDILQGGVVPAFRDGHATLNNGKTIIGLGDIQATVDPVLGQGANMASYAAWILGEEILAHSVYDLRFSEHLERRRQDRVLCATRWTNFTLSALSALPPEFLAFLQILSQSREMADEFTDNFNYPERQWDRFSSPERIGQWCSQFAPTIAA", "assay": "[Cp*Rh(bpy)(H2O)]2+ driven, StyA-catalyzed epoxidation / sulfoxidation", "assay_type": "biochemical", "details": "substrate 2 mM, reaction time 15 min, 37 °C, 0.2 mM [Cp*Rh(bpy)(H2O)]2+, 1.47 μM StyA; for Epoxides concentration: 20 μM FAD, Positive = no standard substances available yet", "method": "In a typical experimental setup 1 ml total volume was placed in an Eppendorf cup in a Thermomixer. The temperature was set to 37° C. and the reaction mixture was shaken thoroughly to ensure O2 intake.\nProduct formation was followed by reversed phase HPLC. The HPLC system (Merck) consisted of a D-7000 controller, L-7200 autosampler, L-7400 UV detector, L-7100 liquid chromatography pump and was fitted with a CC250/4 Nucleosil 100-5 C18 HD column. Samples were eluted under isocratic conditions using 60% acetonitrile and 40% water at a flow rate of 1 ml×min^−1. The elution pattern was monitored at 210 nm.\n0.2 mM [Cp*Rh(bpy)(H2O)]^2+, 0.05 mM FAD, 0.005 mM FMN, 2 mM styrene, 280 U catalase, and 1.16 μM StyA in 50 mM potassium phosphate buffer with 150 mM sodium formate were incubated at 37° C. and agitation at 1500 rpm. At intervals, reactions were stopped by addition of one equivalent volume of cold acetonitrile. After centrifugation (15 min at 4° C. and 23000×g the upper phase was analyzed by reverse phase HPLC. Concentrations were corrected according to the phase ratio after centrifugation. Results from this experiment are given in FIG. 10 and Table 3.\n0.2 mM [Cp*Rh(bpy)(H2O)]^2+, 0.02 mM FAD, 2 mM substrate, 200 U catalase, and 1.47 μM StyA in 50 mM potassium phosphate buffer with 150 mM sodium formate were incubated at 37° C. and agitation at 1500 rpm.\nStyrene oxide was analyzed using a CC200/4 Nucleodex α-PM (Machery-Nagel). As eluent 60% methanol and 40% 6.2 mM TEAA in water was used at a flow rate of 0.7 ml×min^−1. 1,2-Dihydronaphthalene oxide, trans-β-Methylstyrene oxide, indene oxide, and methyl phenyl sulfoxide were extracted from the reaction buffer with one aliquot hexane und analyzed unsing normal phase HPLC with a CHIRACEL OB—H column and hexane:isopropanol 95:5 (9:1 for methyl phenyl sulfoxide) at a flow rate of 0.5 ml*min^−1 as mobile phase. As reference either authentical samples of racemic epoxides were used. (Table 4). […]"}, "[2]": {"molecular_target": "T2, Alkane Hydoxylase from P. Oleovorans (AlkB) (Ectopseudomonas oleovorans, UniProt P12691)", "T2 construct": "made in house; host or cells: E. coli", "T2 sequence (P12691 whole entry)": "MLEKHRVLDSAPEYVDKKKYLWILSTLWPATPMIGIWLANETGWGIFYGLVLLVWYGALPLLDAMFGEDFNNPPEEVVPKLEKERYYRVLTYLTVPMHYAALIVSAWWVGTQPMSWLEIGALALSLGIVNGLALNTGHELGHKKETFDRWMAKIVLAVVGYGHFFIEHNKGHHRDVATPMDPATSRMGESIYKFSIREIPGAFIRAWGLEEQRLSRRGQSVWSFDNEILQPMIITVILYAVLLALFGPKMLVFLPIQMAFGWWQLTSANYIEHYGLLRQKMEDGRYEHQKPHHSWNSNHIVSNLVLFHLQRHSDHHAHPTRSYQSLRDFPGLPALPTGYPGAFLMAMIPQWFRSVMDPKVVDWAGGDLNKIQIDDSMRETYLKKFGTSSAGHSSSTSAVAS", "assay": "Direct reduction of alkane hydroxylase AlkB by [Cp*Rh(bpy)(H2O)]2+, hydroxylation of 3-ethyl toluene", "assay_type": "biochemical", "details": "200 μM [Cp*Rh(bpy)(H2O)]2+, 2 mM 3-ethyl toluene, AlkB crude extract, 30 °C, 20 minutes; average of 4 experiments", "method": "In a typical experiment, 1 ml total volume of 200 μM [Cp*Rh(bpy)(H2O)]^2+ are incubated with 2 mM 3-ethyl toluene and 100 μl of a cell crude extract of recombinant E. coli overexpressing AlkB in a final volume of 1 ml 100 mM potassium phosphate buffer (pH 7.4) supplemented with 150 mM sodium formate and 1 mg/ml bovine serum albumin at 30° C. and vigorous shaking. After 20 minutes the reaction is stopped by addition of […] perchloric acid (10%). After centrifugation the supernatant is extracted with one aliquot of hexane. The organic phase is analyzed by normal phase HPLC (Nucleosil 250/3 100-5 C, mobile phase: hexane/isopropanol 95:5, flow rate=0.5 ml min^−1)."}, "[3]": {"molecular_target": "CytC (Equus caballus, UniProt P00004)", "sequence (P00004 whole entry)": "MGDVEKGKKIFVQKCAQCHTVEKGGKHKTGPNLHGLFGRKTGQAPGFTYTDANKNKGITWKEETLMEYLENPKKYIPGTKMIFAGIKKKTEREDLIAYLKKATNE", "method": "On the other hand CytC is inactivated by hydrogen peroxide, which can be followed by the disappearing Soret-peak (heme absorbance at k=408 nm).\nIn a typical experiment […] CytC is incubated at 30° C. in the presence of 1 mM hydrogen peroxide. At intervals of 2 min the UV-spectrum (between 300 and 650 nm) is recorded (FIG. 18).\nIn identical experiments, the absorbance at 408 nm was followed over time."}, "[4]": {"molecular_target": "T1, monooxygenase component of styrene monooxygenase (StyA)", "assay": "[Cp*Rh(bpy)(H2O)]2+ driven, StyA-catalyzed epoxidation / sulfoxidation", "assay_type": "biochemical", "details": "substrate 4 mM, reaction time 15 min, 37 °C, 0.2 mM [Cp*Rh(bpy)(H2O)]2+, 1.47 μM StyA"}}, "note": "Where two headings read alike, the source gives them in different places. Marks after values point to notes of the source that are not given here.", "data": [{"smiles": "C1=Cc2ccccc2CC1", "note": "[1,2-Dihydronaphthalene]", "values": [{"measurement": "ee-value of the epoxides", "setting": "[1]", "result": 98.9, "unit": "%"}, {"measurement": "Epoxides concentration", "setting": "[1]", "result": 0.23, "unit": "mM"}]}, {"smiles": "C=Cc1cccc(Cl)c1", "note": "[3-Chloro-styrene]", "values": [{"measurement": "Epoxides concentration", "setting": "[1]", "result": 0.37, "unit": "mM"}]}, {"smiles": "Cc1cccc(CCO)c1", "note": "[3-methylphenethylalcohol]", "values": [{"measurement": "3-methylphenethylalcohol produced", "setting": "[2]", "result": "about 0.015 mM"}]}, {"smiles": "C=Cc1ccc(Br)cc1", "note": "[4-Bromo styrene]", "values": [{"measurement": "Epoxides concentration", "setting": "[1]", "result": "Positive^[c]"}]}, {"smiles": "C=Cc1ccc(Cl)cc1", "note": "[4-Chloro styrene]", "values": [{"measurement": "Epoxides concentration", "setting": "[1]", "result": "Positive^[c]"}]}, {"smiles": "C=Cc1ccc(F)cc1", "note": "[4-Fluoro styrene]", "values": [{"measurement": "Epoxides concentration", "setting": "[1]", "result": "Positive^[c]"}]}, {"smiles": "C=Cc1ccc(OC)cc1", "note": "[4-Methoxy styrene]", "values": [{"measurement": "Epoxides concentration", "setting": "[1]", "result": "Positive^[c]"}]}, {"smiles": "C=Cc1ccc(C)cc1", "note": "[4-Methyl-styrene]", "values": [{"measurement": "Epoxides concentration", "setting": "[1]", "result": 0.29, "unit": "mM"}]}, {"smiles": "OO", "note": "[H2O2, hydrogen peroxide]", "values": [{"measurement": "CytC enzymatic activity after preincubation (sulfoxidation of thioanisol)", "setting": "[3]; CytC 15 μM, 1 mM hydrogen peroxide, 10 minutes", "result": "almost complete loss of enzymatic activity"}, {"measurement": "dE (408 nm)/dt", "setting": "[3]; [CytC] 5 μM, [H2O2] 5 mM", "result": -0.0116, "unit": "min⁻¹"}, {"measurement": "dE (408 nm)/dt", "setting": "[3]; [CytC] 5 μM, [H2O2] 10 mM", "result": -0.0231, "unit": "min⁻¹"}, {"measurement": "dE (408 nm)/dt", "setting": "[3]; [CytC] 5 μM, [H2O2] 20 mM", "result": -0.0399, "unit": "min⁻¹"}, {"measurement": "dE (408 nm)/dt", "setting": "[3]; [CytC] 7.5 μM, [H2O2] 10 mM", "result": -0.0281, "unit": "min⁻¹"}, {"measurement": "dE (408 nm)/dt", "setting": "[3]; [CytC] 10 μM, [H2O2] 5 mM", "result": -0.0234, "unit": "min⁻¹"}, {"measurement": "dE (408 nm)/dt", "setting": "[3]; [CytC] 10 μM, [H2O2] 7.5 mM", "result": -0.0330, "unit": "min⁻¹"}, {"measurement": "dE (408 nm)/dt", "setting": "[3]; [CytC] 10 μM, [H2O2] 10 mM", "result": -0.0438, "unit": "min⁻¹"}, {"measurement": "dE (408 nm)/dt", "setting": "[3]; [CytC] 10 μM, [H2O2] 15 mM", "result": -0.0637, "unit": "min⁻¹"}, {"measurement": "dE (408 nm)/dt", "setting": "[3]; [CytC] 10 μM, [H2O2] 20 mM", "result": -0.0821, "unit": "min⁻¹"}]}, {"smiles": "C1=Cc2ccccc2C1", "note": "[Indene]", "values": [{"measurement": "ee-value of the epoxides", "setting": "[1]", "result": 97.9, "unit": "%"}, {"measurement": "Epoxides concentration", "setting": "[1]", "result": 0.42, "unit": "mM"}]}, {"smiles": "CCSc1ccccc1", "note": "[Phenyl ethyl sulfide]", "values": [{"measurement": "Epoxides concentration", "setting": "[1]", "result": "Positive^[c]"}]}, {"smiles": "C=Cc1ccccc1", "note": "[Styrene]", "values": [{"measurement": "Epoxides concentration", "setting": "[4]; 20 μM FAD", "result": 0.33, "unit": "mM"}, {"measurement": "ee-value of the epoxides", "setting": "[4]; (S)", "result": "<98 (S)^[a] %"}]}, {"smiles": "CSc1ccccc1", "note": "[Thioanisole]", "values": [{"measurement": "ee-value of the epoxides", "setting": "[1]", "result": 23.3, "unit": "%"}, {"measurement": "Epoxides concentration", "setting": "[1]", "result": "0.33 (Methyl mM"}]}, {"smiles": "C/C=C/c1ccccc1", "note": "[Trans-β-Methylstyrene]", "values": [{"measurement": "ee-value of the epoxides", "setting": "[1]", "result": 97.6, "unit": "%"}, {"measurement": "Epoxides concentration", "setting": "[1]", "result": 0.28, "unit": "mM"}]}]}
